Data set [1] is described as follows: fs-TRLS observation of DET reaction with a weakly-bound electron. Conditions: pump 350 nm, probe 400 nm; for DET reaction with weakly-bound electron ewb−: identical conditions. From the text:
Femtosecond (fs) time-resolved laser spectroscopy (fs-TRLS) is the most versatile and powerful technique for real-time observation of molecular reactions. It uses laser flashes of such short duration that we are down to the time scale on which the reactions actually happen—femtoseconds (fs) (1 fs=10^−15 seconds). […] For the latter, briefly our fs laser amplifier system (Spectra-Physics, Spitfire) produced laser pulses with a pulse width of 100-120 fs at a repetition rate of 500 Hz. A intense pump pulse at 350 nm was used to generate a weakly-bound electron (ewb^−) by 2-photon excitation of a H2O molecule into a higher energy state H2O* that then ionizes to produce an ewb^−; a probe pulse at 400 nm coming at certain delay was used to monitor the DET reaction with the electron by detecting transient absorbance of the reaction intermediate anion state.

The test system of data set [2] is cisplatin-resistant human ovarian cancer (NIH:OVCAR-3, HTB-161) cells. The data set can be described thus: MTT cell viability, HTB-161. The format is cell-based. Conditions: HTB-161, 96-hr treatment. As for the experimental part: (§1) The complete growth media for ME-180, NIH:OVCAR-3, A549 and MDA-MB-231 cells were the ATCC-formulated McCoy's 5A Medium supplemented with 10% FBS, RPMI 1640 medium with 20%, F-12K medium with 10% FBS, and L-15 Medium (Leibovitz) with 10% FBS, respectively.
(§2) The MTT assay of cell viability was then conducted.

The test system of data set [3] is human cervical cancer (ME-180) cells. The data set can be described thus: MTT cell viability, ME-180. The class given is cell-based. To be noted: ME-180, 96-hr treatment. On the procedure: as §1, §2
In data set [4] the test system is human cervical cancer (HeLa) cells. The data set can be described thus: MTT cell viability, HeLa. The class given is cell-based. To be noted: 96-hr treatment.
Data set [5] has as its system human breast cancer (MDA-MB-231) cells. The data set can be described thus: MTT cell viability, MDA-MB-231. The format is cell-based. Conditions: MDA-MB-231, 96-hr treatment. On the procedure:
as §1, §2

The subject of data set [6] is human normal cells (GM05757). The data set can be described thus: MTT cell viability, human normal cells (toxicity). Conditions: for toxicity to human normal cells (cell survival rate): GM05757, 96-hr treatment, up to 200 μM.
Procedure: A human skin diploid fibroblast (GM05757 cell line) was obtained from the Coriell Cell Repository directly. Fetal bovine serum (FBS) was obtained from Hyclone Laboratories (UT, USA). The GM05757 normal cells were cultivated with MEM (Hyclone) supplemented with 10% FBS, 100 units/mL penicillin G and 100 μg/mL streptomycin (Hyclone). The cells were maintained at 37° C. in a humidified atmosphere containing 5% CO2.
The toxic effects of NPBs on cell viability were determined by the 3-[4,5-dimethylthiazol-2-yl]-2,5-diphenyl tetrazoliumbromide (MTT) assay. Cells were cultured in 96-well plates (5×10^3 cells/well) for 24 h. The culture medium was replaced by fresh culture medium and incubated for 72 or 96 h with varying drug concentrations. The MTT assay of cell viability was then conducted. Briefly, 100 μl new medium without phenol red containing 1.2 mM MTT (sigma) (i.e., adding 10 μl 12 mM MTT stock solution in PBS) were added to each well and incubated for 4 h. The medium was then removed, and the formazan crystals solubilized by 100 μL/well DMSO (or alternatively by 100 μl/well SDS and incubated for another 4 h). The surviving fraction was determined by measuring the absorbance at 540 nm (570 nm for SDS solubilization) using a Multiskan Spectrum UV/Vis microplate reader (Thermo Scientific), which is directly proportional to the number of viable cells.
In data set [7] the test system is human lung cancer (A549) cells. The data set can be described thus: MTT cell viability, A549. The format is cell-based. As for the experimental part: as §1, §2
For data set [8], the system named is human cervical cancer (ME-180) cells. The data set can be described thus: CellEvent Caspase-3/7 apoptosis assay by fluorescence microscopy. The class given is cell-based. Conditions: 48 h. From the text: Human cervical cancer (ME-180) cells were purchased from the American Type Culture Collection (ATCC).
The CellEvent™ Caspase-3/7 Green Detection Kit (Invitrogen) was used for the detection of activated caspases and apoptotic cells following the vendor's protocol. This kit provides a […] specific for caspase-3 and -7; the cells show green fluorescence for activated caspase-3 and -7. The reagent consists of a four amino acid peptide (DEVD) conjugated to a nucleic acid binding dye. This cell-permeant substrate is intrinsically non-fluorescent, because the DEVD peptide inhibits the ability of the dye to bind to DNA. After activation of caspase-3 or caspase-7 in apoptotic cells, the DEVD peptide is cleaved, enabling the dye to bind to DNA and produce green fluorescence. Briefly, to use the CellEvent™ Caspase-3/7 Green Detection Reagent, add the substrate to the cells in complete growth medium, incubate for 30 minutes, and image. […] Because the cleaved reagent labels nuclei of caspase 3/7-positive cells, this stain can also provide information on nuclear morphology, including condensed nuclei typical of late-stage apoptosis. ME-180 cells were grown to 60% confluence and then treated with 0-200 μM compound B for 48 h. The fluorescence was detected with a Nikon Eclipse TS100 microscope. Images were captured with an attached camera.

Data set [9] deals with human cervical cancer (ME-180) tumor. The data set can be described thus: Xenograft mouse model of human cervical cancer (ME-180). The format is in vivo, SCID mice. Conditions: 7 mg/kg daily for 5 days, IP. As for the experimental part:
The two groups in the experiment were: (1) control article (5% EtOH/medium); (2) Compound B at 7 mg/kg in 5% EtOH/medium daily for 5 days, as shown in Table 1.
(§3) 6-8 week SCID mice were used in this study; Compound B as an exemplary NPB was dissolved in 5% EtOH: 95% cell culture medium (≈1:20).
ME-180 (human cervical cancer) cells were cultured in the ATCC-formulated McCoy's 5A Medium supplemented with 10% FBS. […] The cells were rinsed with PBS, trypsined for detachment from the bottom of the flask, mixed with fresh growth medium, and centrifuged to remove the supernatant. The cells were re-suspend with fresh medium to appropriate concentration for s.c. injection into the mice. Injection volume was 50 μl (1.5×10^6 cells) per animal.
ME-180 tumour cells were subcutaneously into female SCID mice (age 6-8 weeks) in a volume of 50 μL into the left flank using a 27-gauge needle. This was established as a subcutaneous (SC) xenograft mouse model of human cervical cancer.
Mice were individually weighed and injected intraperitoneally according to body weight for an injection concentration as outlined in the study group table above. The injection volume was based on 200 μL per 20 g mouse. The skin surface was wiped down with 70% isopropyl alcohol to clean the injection site.
Tumor size was measured as a function of time to assess tumor growth delay associated with treatment using slide caliper. […]

Data set [10] in a line: In vivo toxicity in SCID mice. On the procedure: The two groups (five 6-8 week SCID mice/group) in the experiment were: (1) control article (in 5% EtOH/medium); and (2) Compound B 7 mg/kg in 5% EtOH/medium, as shown in Table 2. Compound B was injected IP every day for 5 days.
as §3
6-8 week SCID Mice were individually weighed and injected intraperitoneally (IP) according to body weight for an injection concentration as outlined in the study group table above. Compound B was administered by IP injection into mice at 0, and 7 mg/kg daily for 5 days. The injection volume was based on 200 μL per 20 g mouse. The skin surface was wiped down with 70% isopropyl alcohol to clean the injection site.
The overall drug toxicity in mice was observed by a survival assay and body weight measurements, and the acute drug toxicity was measured by blood collection and histology. The hepatotoxicity (ALT, ALP, total bilirubin), nephrotoxicity (blood urea, creatinine), and electrolytes (Na, K, Cl) were analyzed by biochemical methods or HPLC-mass spectroscopy. […] Blood samples were collected from the saphenous vein at various time points after drug injection. At the end of the study, whole organs were harvested in order to assess liver, and kidney toxicity.
All animals were observed post administration, and at least once a day, more if deemed necessary, during the pre-treatment and treatment periods for mortality and morbidity. In particular, animals were monitored for signs of ill health such as body weight loss, change in appetite, behavior changes such as altered gait, lethargy and gross manifestations of stress.

Data set [11] relates to human cervical cancer (ME-180) cells. The data set can be described thus: γH2AX DNA damage assay (DNA double-strand breaks). The class given is cell-based. To be noted: ME-180, 12 h treatment. On the procedure:
The γH2AX DNA damage assay (Invitrogen) was used to detect DSBs of genomic DNA in cancer cells. The phosphorylated H2AX foci are a biomarker of DNA DSB. DNA DSBs are measured by specific antibody-based detection of phosphorylated H2AX (γH2AX) in the nucleus. Briefly, the human cervical cancer (ME-180) cells were treated with different concentrations of compound B for 12 h under the cell culture conditions described above. Then following the detailed experimental procedures described in the Protocol provided by the manufacturer, we performed the HCS DNA Damage Assay of the treated cells. The images of cells were acquired with a Nikon Eclipse TS100 fluorescence microscope; quantitative analyses of activated γ-H2AX (DNA DBS yield) in the cells were performed using an Image J software.

[12] abbreviates: mouse, in vivo, ip, 7 mg/kg/day.

“Also recorded” adds a separate entry of the source.

Take `O=c1[nH]c(=O)n([C@H]2C[C@H](O)[C@@H](CO)O2)cc1Br` [BrdU, bromodeoxyuridine]: the “DET reaction with weakly-bound electron ewb−” value in data set [1] is on record as “no DET reactions detected; also recorded: negligible; also recorded: no DET reaction”.
Consider `Nc1cc(Cl)c(Cl)cc1N` [Compound A, 4,5-dichloro-1,2-phenylenediamine], for which the “cell survival rate (killing of cisplatin-resistant cancer cells)” value in [2] is “significant killing”. Further, the “cell survival rate (killing of cancer cells)” value is recorded as “significant killing” in data set [3]; “significant killing” in data set [4]; “significant killing” in data set [5]; “significant killing” in data set [7] (A549, 96 hr treatment). For the same compound, the “toxicity to human normal cells (cell survival rate)” value (“toxicity to human normal cells” below) in [6] is reported as “essentially no toxicity; also recorded: little toxicity”.
As for `Nc1cc(Br)c(Br)cc1N` [Compound B, 4,5-dibromo-1,2-phenylenediamine], in data set [8] (ME-180, 0-200 μM), the “activation of caspase-3 and -7” value is recorded as “significant activation”. Also, in data set [8] (ME-180, 200 μM), the “population of apoptotic cells” value is at least 60%. For the same compound, in [2], the “cell survival rate (killing of cisplatin-resistant cancer cells)” value is given as “significant killing”. Besides, the “cell survival rate (killing of cancer cells)” value in data set [3] is given as “significant killing”; in data set [4], “significant killing”; in data set [5], “significant killing”; in data set [7] (A549, 96 hr treatment) it was “significant killing”. The “tumor growth vs control group” value in data set [9] was “significantly suppressed tumor growth”. Moreover, the “toxicity to human normal cells” value in data set [6] is recorded as “essentially no toxicity; also recorded: little toxicity”. In data set [10] (7 mg/kg daily for 5 days, IP), the overall toxicity result is “no overall drug toxicity”. Besides, the “electrolytes (Na, K, Cl)” value in data set [10] (setting [12]) is recorded as “no changes in electrolytes”. Besides, the “hepatotoxicity (ALT, ALP, total bilirubin)” value in data set [10] (setting [12]) is reported as “no hepatotoxicity”. Further, in data set [10] (setting [12]), the “nephrotoxicity (blood urea, creatinine)” value was “no nephrotoxicity”. For the same compound, the “yield of DNA double-strand breaks (γ-H2AX intensity)” value in data set [11] is “significant amount of DNA DSBs”. The “dissociative lifetime of NPB*−” value in data set [1] (ethanol) is around 6.0 ps. In addition, the “DET reaction with weakly-bound electron ewb−” value in data set [1] was “highly effective”.
As to `Nc1cc(I)c(I)cc1N` [Compound C, 4,5-diiodo-1,2-phenylenediamine], the “cell survival rate (killing of cisplatin-resistant cancer cells)” value in [2] was “significant killing”. Further, the “cell survival rate (killing of cancer cells)” value in data set [4] is “significant killing”; in [5] it was “significant killing”; in data set [7] (A549, 72 hr treatment), “significant killing”. Moreover, the “toxicity to human normal cells” value in data set [6] was “essentially no toxicity; also recorded: little toxicity”.
As to `O=c1[nH]c(=O)n([C@H]2C[C@H](O)[C@@H](CO)O2)cc1I` [IdU, iododeoxyuridine], the “DET reaction with weakly-bound electron ewb−” value in data set [1] is “no DET reactions detected; also recorded: negligible; also recorded: no DET reaction”.
For “bromo-(1,2-)diamino-benzene [Compound D]”, the “cell survival rate (killing of cisplatin-resistant cancer cells)” value in data set [2] is “significant killing”. The “cell survival rate (killing of cancer cells)” value is reported as “significant killing” in data set [3]; “significant killing” in data set [4]; “significant killing” in data set [5]; “significant killing” in data set [7] (A549, 96 hr treatment). Besides, the “toxicity to human normal cells” value in [6] was “essentially no toxicity; also recorded: little toxicity”.
As to “cis-Pt(NH3)2Cl2 [cisplatin, reference compound]”, the IC50 in data set [6] (read-out: IC50 (cell survival rate 50% with respect to untreated cells), GM05757, 72-hr treatment) was around 10 µM.

These data come from patent US11446294B2, “Non-platinum-based anti-cancer compounds for use in targeted chemotherapy” (priority 2013, dated 2022).
